This is an account of results in patent US20250032484A1, “THERAPEUTIC TARGETS AND AGENTS FOR THE TREATMENT OF POSTTRAUMATIC STRESS DISORDER” (priority 2021, published 2025).

The conditions of data set [1]: FDA clinical review NDA 209394; cited from earlier work.
Data set [2] has as its system VA patients with PTSD (PTSD symptoms, PTSD Checklist). Briefly: TreeScan nested case-control study of medications associated with PTSD symptom improvement (PTSD Checklist) in VA records. In kind it is in vivo, human. The method, then: Study Sample and Data Sources. A nested case-control study was conducted within a previously established retrospective cohort that included all VA users with a clinical diagnosis of PTSD (International Classification of Diseases [ICD]-9:309.81, ICD-10: F43.1x) from Oct. 1, 1999 through Sep. 30, 2019 (Shiner et al. (2021) J Eval Clin Pract.). The data source contains information on services use, clinical diagnoses, filled prescriptions, and patient-reported outcome measures (PROMs) for PTSD using the PTSD Checklist (PCL) for these patients. This study was approved by the Veterans Institutional Review Board of Northern New England.
The goal of the current study was to evaluate any filled medications associated with PTSD symptom improvement, and as such, the analytic sample for this study included only patients with PROMs that were at least 30 days apart. 30 days was selected to allow for medications to be taken for at least one full course (typically 28 days). Patients with PROMs more than 365 days apart were excluded as these are unlikely to provide an accurate assessment of PTSD symptom change between the two time points. For patients who had two overlapping PROM intervals, those closest to 84 days in length were chosen to emulate typical PTSD medication efficacy trials (Watts et al. (2013) J Clin Psychiatry. 74: e541-550). When a patient had two or more overlapping intervals at exactly 84 days, the historically earliest interval was chosen. If patients had multiple non-overlapping intervals, all were included. Patients who met the selection criteria for PTSD in the original cohort and had at least one PROM pair where they started a new medication (defined below) constituted the overall analytic sample for the current study.
PTSD Improvement Cases and No Improvement Controls. In order to maximize the number of patients with available symptomatic measurement, two different versions of a PROM for PTSD were integrated into a single dataset (Shiner et al. (2021) J Eval Clin Pract.). The two PROMs were the PCL versions aligned to the Diagnostic and Statistical Manual of Mental Disorders (DSM), version IV and Version 5 (APA (2000): Diagnostic and Statistical Manual of Mental Disorders. 4th Edition. Text Revision: DSM-IV-TR. Arlington, VA: American Psychiatric Association: APA (2013): Diagnostic and Statistical Manual of Mental Disorders: Fifth Edition (DSM-5). Washington, D.C.: American Psychiatric Association), which will heretofore be called the PCL-IV and the PCL-5 (Blevins et al. (2015) J Trauma Stress. 28:489-498: Weathers et al. (1993) Trauma. Coping. and Adaptation. San Antonio, Texas: International Society for Traumatic Stress Studies, 9th Annual Meeting). […] A validated crosswalk (ICC=0.96) was used to convert all values to PCL-5 scoring (Moshier et al. (Under review): An empirical crosswalk for the PTSD Checklist: Translating DSM-IV to DSM-5). PTSD improvement cases were defined by a clinically meaningful improvement, which was a decrease of 15 points or more between assessment points (Lee et al. (2019) Reliable Change Index and Clinically Significant Margins for the CAPS-5 and PCL-5 among Veterans. Boston, MA: International Society for Traumatic Stress Studies, 35th Annual Meeting). […] Thus, the no PTSD improvement control group was defined as worsening of symptoms or reductions of up to 7 points on the PCL. Improvements between 8 and 14 points were of uncertain clinical significance and were therefore excluded.
Identification and Classification of New Medications. The predictors of interest were initiation of medications for any indication. Candidate agents included those that were started in the interval between PCL pairs and continued for at least a 28-day supply. When patients started multiple medications between a given PCL pair, they contributed information for each of the medications in the tree.

[3] abbreviates: all patients in the overall sample.
The mark [4] stands for this setting: baseline PCL 38 or higher, PTSD diagnosis within 30 days, without any concurrent evidence-based treatment.
The mark [5] stands for this setting: baseline PCL score of 38 or higher and PTSD diagnosis within 30 days.
Where [6] appears, read: case = improved by 15 or more points on PTSD Checklist, all patients in the overall sample.
Setting [7] is: improvement in PTSD, all patients in the overall sample.
Setting [8] is: overall sample without any concurrent evidence-based treatment.

In the case of glecaprevir, the BBB permeability result in data set [1] is “poor BBB permeability”. Moreover, the “EXP = Expected Cases” value in data set [2] (setting [3]) is 16; in data set [2] (setting [4]), 4; in data set [2] (setting [5]), 14; in data set [2] (setting [8]), 5. Further, the “O:E = Observed Cases over Expected Cases” value in data set [2] (setting [4]) is reported as 3.52; in data set [2] (setting [5]) it was 2.21; in data set [2] (setting [7]), 2.09; in data set [2] (improvement in PTSD, all patients in the overall sample, listed as glecaprevir), 2.09; in data set [2] (setting [8]) it was 3.09. Besides, the “OBS = Observed Cases” value in data set [2] (setting [4]) is listed as 14; in data set [2] (setting [5]), 30; in data set [2] (setting [6]), 33; in data set [2] (setting [8]) it was 14.
On to `COC[C@H]1C[C@@H](c2ncc(-c3ccc4c(c3)COc3cc5c(ccc6[nH]c([C@@H]7CC[C@H](C)N7C(=O)[C@@H](NC(=O)OC)C(C)C)nc65)cc3-4)[nH]2)N(C(=O)[C@H](NC(=O)OC)c2ccccc2)C1` [Velpatasvir, velpatasvir], for which the “EXP = Expected Cases” value in data set [2] (setting [3]) stood at 11; in data set [2] (setting [5]), 10. Also, the “O:E = Observed Cases over Expected Cases” value in data set [2] (setting [5]) stood at 2.17; in data set [2] (setting [7]), 2.10; in data set [2] (improvement in PTSD, all patients in the overall sample, listed as velpatasvir), 2.10. The results for the “OBS = Observed Cases” value in data set [2] (setting [5]) and in data set [2] (setting [6]) were 21 and 24, respectively.
Consider `[Li]` [Lithium], for which the “EXP = Expected Cases” value amounted to 246 in data set [2] (setting [3]) and 92 in data set [2] (setting [8]). Besides, the “OBS = Observed Cases” value in data set [2] (setting [6]) is 304; in data set [2] (setting [8]), 127. The “O:E = Observed Cases over Expected Cases” value turned out to be 1.24 in data set [2] (setting [7]) and 1.38 in data set [2] (setting [8]). Moreover, the “association with PTSD symptom improvement, in words (statistical alert at P<0.1)” value in data set [2] (overall sample) is on record as “similarly small associations”.
For the molecule Naloxone, the “EXP = Expected Cases” value in data set [2] (setting [3]) was 312; in data set [2] (setting [5]), 279. For the same molecule, the entries for the “O:E = Observed Cases over Expected Cases” value in data set [2] (setting [5]) and in data set [2] (setting [7]) were 1.35 and 1.37, respectively. Also, the “OBS = Observed Cases” value in data set [2] (setting [5]) stood at 376; in data set [2] (setting [6]), 426.
Naltrexone: the “EXP = Expected Cases” value amounted to 504 in data set [2] (setting [3]) and 444 in data set [2] (setting [5]). Moreover, the figures for the “O:E = Observed Cases over Expected Cases” value in data set [2] (setting [5]) and in data set [2] (setting [7]) were 1.21 and 1.20, respectively. The “OBS = Observed Cases” value in data set [2] (setting [5]) is recorded as 536; in data set [2] (setting [6]) it was 605.
